Values quoted from earlier work in patent US5164490A, “Pneumocystis carinii dihydrofolate reductase gene and methods for its use” (The Regents of the University of California, priority 1989, dated 1992).

Tested on: P. carinii
Conditions: trimethoprim alone

## COc1cc(Cc2cnc(N)nc2N)cc(OC)c1OC [trimethoprim]
  efficacy in the rat model of P. carinii infection: lack of efficacy
